Data taken from US12590100B2, “Tetrahydro-spiroindoline-pyrrolopyrrole-triones inhibitors of the NRF2-β-TrCP interaction for use in the treatment of fatty liver disease” (Universidad Autonoma De Madrid, priority 2021, dated 2026).
“Also recorded” adds a separate entry of the source.

Tests used:
[1] = system: C57BL/6 mice treated with LPS; test: Inflammatory response in LPS-treated mice; assay type: in vivo, mouse
Procedure: FIG. 11. PHAR reduces the inflammatory response in LPS-treated mice. The mice were divided into 4 experimental groups (n=4). Experimental groups 1 and 3 were treated by IP route with vehicle (Tween-80+PBS, 1:13) and experimental groups 2 and 4 with 50 mg/kg of PHAR for 5 days. After the second-to-last administration of the compound, groups 3 and 4 were treated by IP route with 1 mg/kg of LPS for 24 h. Two hours after the last dose of PHAR and twenty-four hours after the administration of LPS, all the mice were sacrificed by extracting the liver protein and total RNA, A), representative immunoblots showing NRF2, HO1, and GAPDH protein levels as the liver extract loading control. B), densitometric analysis of NRF2 and HO1 protein levels of the representative immunoblots shown in (A), expressed as a ratio of NRF2/GAPDH or HO1/GAPDH. The data is depicted as means±SEM (n=4). Statistical analysis was performed with one-way ANOVA followed by the Bonferroni test to compare inter-group differences. **p<0.01; ***p<0.001 vs. vehicle. C), the mRNA levels of Il1β, Il6, and Tnfα were determined by means of qRT-PCR and normalized by means of average Gapdh, Tbp, and β-actin. The data is depicted as mean±SEM (n=4). Statistical analysis was performed with one-way ANOVA followed by the Bonferroni test to check inter-group differences. ***p<0.001 vs. LPS. D) Representative images of hematoxylin and eosin (H&E) staining of mouse liver and immunohistochemical F4/80 staining of inflammatory liver macrophages (Kupffer cells).
To that end, 16 wild-type C57BL/6 mice were divided into 4 experimental groups: vehicle (experimental group 1), PHAR (experimental group 2), LPS (3), and LPS+PHAR (4). After obtaining results as promising as those described in detail in Example 1.6, the inventors decided to carry out the same experimental protocol. Briefly, the mice were treated daily by IP route with 50 mg/kg of PHAR (experimental groups 2 and 4) or vehicle (groups 1 and 3). Two hours after the second-to-last administration, experimental groups 3 and 4 were treated by IP route with […] of LPS. Lastly, the last dose of PHAR was administered on the last day and 24 h after the administration of LPS, all the mice were sacrificed by extracting the liver protein and total RNA.

[2] = system: peritoneal macrophages (Nrf2-4KI); test: Inflammatory response in LPS-stimulated peritoneal macrophages from Nrf2-4KI mice; assay type: cell-based, mouse; conditions: Nrf2-4KI peritoneal macrophages, PHAR 10 μM 8 h
Procedure: FIG. 8. PHAR reduces inflammatory response in peritoneal macrophages originating from Nrf2^+/+ mice but not in peritoneal macrophages originating from LPS-stimulated Nrf2-4KI mice. Peritoneal macrophages originating from wild-type (WT) and serum-deprived NRF2 knock-in (Nrf2-4Ki) mice were pretreated with 10 μM of PHAR for 8 h. 0.1% DMSO was used as a vehicle. After that period of time, the cells were treated with 100 ng/ml of LPS for 4 h. A), representative immunoblots originating from both cell types of NRF2, HO1, pre-IL1β, COX2, NOS2, and GAPDH as a loading control. B), densitometric analysis of NRF2 and HO1 protein levels of the representative immunoblots of (A), expressed as a ratio of protein/GAPDH levels. The data is depicted as means±SEM (n=3). Statistical analysis was performed with two-way ANOVA followed by the Bonferroni test to compare inter-group differences. *p<0.05; **p<0.01; ***p<0.001 vs. LPS. C), Densitometric analysis of pre-IL1b, COX2, and NOS2 protein levels of the representative immunoblots of (A), expressed as a ratio of protein/GAPDH levels. The data is depicted as means±SEM (n=3). Statistical analysis was performed with two-way ANOVA followed by the Bonferroni test to compare inter-group differences. *p<0.05; **p<0.01; ***p<0.001 vs. LPS. D), the mRNA levels of Hmox1, Il1 β, Cox2, Nos2, Il6, and Tnfα were determined by means of qRT-PCR and normalized by means of average Gapdh, Thp, and β-actin. The data is depicted as mean±SEM (n=3). Statistical analysis was performed with two-way ANOVA followed by the Bonferroni test to check inter-group differences. *p<0.05; **p<0.01; ***p<0.001 vs. LPS.
As a complementary approach, peritoneal macrophages extracted from Nrf2^+/+ mice and knock-in mice generated in the laboratory having 4 serines substituted with alanines in critical positions for phosphorylation by priming kinase/priming kinases and by GSK-3β (Serines 335, 338, 342, and 347) were used. Both cell types were pretreated with DMSO or PHAR (10 μM, 8 h) and then stimulated with LPS (100 ng/ml, 4 h). […]

[3] = Preliminary safety study, 4 weeks IP treatment in control and STZ-treated mice; assay type: in vivo, mouse
Procedure: FIG. 10. […] A preliminary safety profile of PHAR treatment was assessed in […] control and streptozotocin (STZ) treated mice. These mice were subjected to a daily IP dose of […] of vehicle (VEH; Tween-80:PBS, 1:13), or PHAR for 5 days a week for 4 weeks. A) weight evolution during the weeks of treatment. (B-E) serum analysis of the levels of albumin (B), total protein (C) and liver transaminases, aspartate transaminase, AST (D), and alanine transaminase, ALT (E). The ranges of normal values are highlighted with a green dashed line. The number of individuals per group is reflected in the graphs.
Preliminary safety studies have been performed in 7-week-old control and streptozotocin (STZ)-treated mice. These mice were subjected to an I.P treatment of 50 mg/kg of vehicle (Tween-80: PBS, 1:13) or PHAR for 4 weeks with 5 weekly doses. […] On the other hand, serum levels of albumin, total protein and two transaminases (AST and ALT) were analyzed.

[4] = mice, IP 50 mg/kg PHAR daily for 5 days

## O=C1[C@@H]2[C@H](Cc3c[nH]c4ccccc34)N[C@]3(C(=O)Nc4ccc(Cl)cc43)[C@@H]2C(=O)N1c1ccc2c(c1)OCCO2 [PHAR]
[1]; LPS+PHAR-treated versus LPS-treated mice
  inflammatory activation of hepatic macrophages (Kupffer cells), F4/80 immunostaining: reduction in F4/80 staining; also recorded: greatly attenuated
[1]; LPS-treated mice, prior IP 50 mg/kg PHAR
  liver mRNA of pro-inflammatory cytokines (Il1β, Il6, Tnfα): significant reduction in the production of said cytokines
[1]; [4]
  liver HO-1 levels: induction mediated by the compound could be clearly seen
  liver NRF2 levels: increase in NRF2 levels
[1]; mice, IP 50 mg/kg PHAR for 5 days
  liver structure (H&E): remains unaltered
[1]; mice, IP 50 mg/kg PHAR for 5 days plus LPS 24 h
  liver NRF2 and HO-1 levels with combined treatment PHAR+LPS: synergistic effect
[2]
  HO-1 induction: the same HO-1 induction
  NRF2 induction: considerably lower
[2]; LPS 100 ng/ml 4 h
  protective effect against the inflammatory response: lost in almost all the inflammatory markers analyzed
[3]; control and STZ-treated mice, I.P 50 mg/kg, 5 weekly doses, 4 weeks
  body weight during treatment: did not lose weight
[3]; control and STZ-treated mice, I.P 50 mg/kg, 5 weekly doses, after 4 weeks
  serum albumin, total protein, AST and ALT: values within normal ranges
[3]; mice, daily IP 5 days a week for 4 weeks
  toxicity of chronic / prolonged administration: does not produce toxicity; also recorded: prolonged administration of PHAR is safe
